This note sets out measurements from ChEMBL document CHEMBL3217706, “Identification of CYP1A2 ligands by structure-based and ligand-based virtual screening” (Medchemcomm, 2011).

The structures appear in SMILES notation.

One data set concerns the target T1, Cytochrome P450 1A2 (Homo sapiens, UniProt P05177).
T1 sequence (P05177 whole entry): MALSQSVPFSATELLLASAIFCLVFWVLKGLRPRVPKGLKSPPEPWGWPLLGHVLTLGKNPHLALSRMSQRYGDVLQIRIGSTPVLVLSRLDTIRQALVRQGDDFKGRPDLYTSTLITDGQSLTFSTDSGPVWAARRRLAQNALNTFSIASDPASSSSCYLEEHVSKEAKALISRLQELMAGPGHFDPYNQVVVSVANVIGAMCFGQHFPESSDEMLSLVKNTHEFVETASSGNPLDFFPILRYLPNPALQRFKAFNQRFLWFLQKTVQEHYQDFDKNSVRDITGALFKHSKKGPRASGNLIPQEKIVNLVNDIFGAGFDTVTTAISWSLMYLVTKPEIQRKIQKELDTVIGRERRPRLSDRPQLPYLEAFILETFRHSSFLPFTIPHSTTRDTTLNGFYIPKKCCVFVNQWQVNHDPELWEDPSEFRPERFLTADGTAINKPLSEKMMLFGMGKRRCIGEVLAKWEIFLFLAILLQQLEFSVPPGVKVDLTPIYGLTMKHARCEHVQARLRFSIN
Description: Inhibition of human recombinant CYP1A2 EROD activity expressed in Escherichia coli JM109 assessed as inhibition of de-ethylation of 7-ethoxyresorufin to resorufin by spectrofluorometric analysis. In kind it is ADME.

For another data set, the target named is T2, CYP1A2 (Homo sapiens, UniProt P05177).
T2 sequence (P05177 whole entry): T1 sequence (P05177 whole entry)
Description: Inhibition of human recombinant CYP1A2 EROD activity expressed in Escherichia coli JM109 assessed as inhibition of de-ethylation of 7-ethoxyresorufin to resorufin at 0.3 uM by spectrofluorometric analysis. In kind it is ADME. The conditions noted are these: recombinant human CYP1A2 expressed in Escherichia coli JM109, probe 7-ethoxyresorufin.

Regarding `N#CC1=C(N)Oc2c(ccc3ccccc23)C1c1ccc2c(c1)OCC2` (centres undefined), the IC50 at Cytochrome P450 1A2 is 112 nM. Moreover, the inhibition at 0.3 µM at CYP1A2 was greater than 50%. As to `COc1ccc(Nc2nc(-c3cccs3)cs2)cc1`, the IC50 on Cytochrome P450 1A2 was 72 nM. The inhibition at 0.3 µM at CYP1A2 is greater than 50%. On the same counts, the results for `COc1ccc(C=O)cc1COc1c(Cl)cc(Cl)cc1Cl` are 57 nM and greater than 50%. Taken in the same sequence, the figures for `O=[N+]([O-])c1ccc2nc3c(nc2c1)-c1cccc2cccc-3c12` were 21 nM and greater than 50%.

`Cn1c(=O)cc2c3c(c(N)ccc31)C(=O)c1ccccc1-2`: the IC50 on Cytochrome P450 1A2 worked out at 16 nM. The inhibition at 0.3 µM at CYP1A2 is greater than 50%.

Regarding `Brc1ccc2c3c(cccc13)-c1nc3ccccc3nc1-2`, the IC50 on Cytochrome P450 1A2 worked out at 22 nM. Besides, the inhibition at 0.3 µM at CYP1A2 is greater than 50%. With `O=c1cc(-c2ccccc2)oc2c1ccc1ccccc12` [ALPHA-NAPHTHOFLAVONE], the inhibition at 0.3 µM at CYP1A2 was greater than 50%. With `Cc1nn(-c2ccccc2)c2nc(C(F)(F)F)cc(C(F)(F)F)c12`, at Cytochrome P450 1A2, the IC50 worked out at 231 nM. The inhibition at 0.3 µM on CYP1A2 was greater than 50%. Take `C(=N\n1cnnc1)/c1ccc(-c2cccc3ccccc23)o1`: the IC50 at Cytochrome P450 1A2 was found to be 48 nM. At CYP1A2, the inhibition at 0.3 µM was greater than 50%. On the same counts, the results for `CN1C(=O)/C(=C2\NC(=S)NC2=O)c2cc(Br)ccc21` are 49 nM and greater than 50%.
